How the values were obtained:
fibrin(ogen) = fibrin(ogen) deposition into the blood vessel wall, quantitative immunofluoresence
Text: (§1) Adult male apoE-deficient mice, back-crossed onto a C57B16 background for at least five generations, were randomised into groups of eight animals at 12 weeks of age, such that each group had similar average body weight. […] The amount of food eaten and the body weight of each mouse was monitored daily for the first week, and once per week thereafter. After 12 weeks of treatment, the mice were sacrificed by CO2 asphyxiation, and heart & lung blocks were excised, embedded in Cryo-M-bed (Bright Instruments, UK) without fixation and snap frozen in liquid nitrogen.
(§2) Sections were then prepared from the aortic root according to the Paigen Strategy (a defined sequence of cutting sections which allow reproducible comparison between animals; see for example Grainger et al. (1995) Nature Med. 1:1067-72 and the references therein). 4 μm crysosections were cut using a motordriven cryotome (Bright Instruments) and collected onto poly-L-lysine coated glass microscope slides, then fixed in ice-cold acetone for 90 secs, allowed to air dry and stored at −20° C. until analysed.
The level of fibrin or fibrinogen deposited into the vessel wall was also estimated by quantitative immunofluoresence, using a method identical to that for TGF-beta1, except that the primary antibody was sheep anti-fibrin(ogen) (Chemicon; 2 μg/ml) and the secondary antibody was donkey anti-sheep IgG minimum cross-reactivity, FITC labelled (Jackson Immunoresearch), as previously described (Thromb Res. 2001 Apr. 1; 102(1):71-80).
Adult male apoE-deficient mice were treated, in groups of 8, with fish oil (Seven Seas, UK), aspirin or both agents simultaneously from 12 weeks of age until 24 weeks of age, exactly as described in Example 2.
The levels of TGF-beta1 and fibrin(ogen) in the vessel wall were determined by quantitative immunofluoresence, exactly as described in example 2.

TGF-beta1 protein = assay: total TGF-beta1 protein in conditioned medium, Quantikine ELISA; type: cell-based, human; conditions: 24 hrs or 72 hrs; any dose tested (Tamoxifen up to 33 μM, aspirin up to 100 μM)
Protocol: The cells were cultured (37° C.; 5% CO2) in DMEM+20% foetal calf serum (FCS), and subcultured every 5 days at 1:2 dilution, using 0.02% trypsin/EDTA (Gibco).
For the experiments, the cells were subcultured into 12-well cluster plates at 1×10^5 cells/cm^2, and allowed to grow for 24 hrs. […] The cells were then incubated for either 24 hrs or 72 hrs depending on the experiment. All treatment conditions were established in triplicate.
TGF-beta1 protein levels in the medium was measured using the Quantikine ELISA kit (R&D Systems) in accordance with the manufacturer's instructions, except that the medium was pre-activated by addition of an equal volume of 2.7M HCl 10M Urea, and then neutralised by addition of the same volume of 1M HEPES 2M NaOH. […] Note that TGF-beta proteins are well known to interact with many different matrix proteins and cell surface proteins, including proteoglycans, low affinity type III receptors, fibronectin and collagen, and consequently the amount of TGF-beta protein in the medium may not represent the total amount synthesised by the cells, and a negative result in the assay for TGF-beta protein may represent a false negative.

tgfb1 mRNA = tgfb1 mRNA level by quantitative PCR in human aortic vascular smooth muscle cells; type: cell-based; conditions: 24 hrs
Protocol: (1995) Cardiovasc. Res. 29:848-55). […] The cells were then incubated for either 24 hrs or 72 hrs depending on the experiment. All treatment conditions were established in triplicate. The level of mRNA for tgfb1, tgfb2 and tgfb3 were estimated by quantitative PCR. The media was removed and RNA was carefully prepared using the Ambion RNAqueous4PCR kit (Ambion#1914) in accordance with the manufacturer's instructions. The purity of the RNA and the quantity was assessed spectrophotometrically. […] This analysis results in both a gel-like image as well as electrophoretic data. Indications of RNA degradation are: (a) decreasing ratio of ribosomal bands (b) additional peaks bellow the ribosomal bands (c) Decrease in overall RNA signal (d) shift towards shorter fragments. All the mRNA samples used in the experiments presented here passed this RNA quality control step. Next, the RNA was converted to cDNA using the ABI High-Capacity cDNA Archive Kit, in accordance with manufacturer's instructions. […] Samples were vortexed to ensure thorough mixing. cDNA was aliquoted into ABI 384 well plates using a multi-channel pipette, 4.5 μl of sample into each well. Samples were assayed in triplicate (that is, nine determinations in total were made for each condition, being three separate assays on each of three replicate culture wells). The assay mix and Universal Master Mix were prepared and aliquoted across the 384 well plates 5.5 μl in each well, using a single channel pipette. The final composition of each reaction (10 μl) being: […] Universal Master Mix=5 μl; cDNA=4.5 μl. The plates were then heat sealed using Abgene clear seal strong plastic heat seals, and then cycled and scanned using the ABI 9700HT under the following conditions: 95° C. for 10 minutes to activate the AmpliTaq GOLD, then 40 cycles of: 95° C. for 15 sec (Denaturation), 60° C. for 60 […]). […] Quantitative PCR was performed using several primer/probe sets. […] We used both commercially available primer/probe sets (ABI Taqman pre-validated assays), using both available sets in the ABI database for tgfb1 and tgfb2, as well as the single available set for tgfb3. In addition, we used our own manual design probe/primer set for each of tgfb1, tgfb2 and tgfb3. For normalisation, we used TATA-binding protein (TBP) as the primary normalisation standard, with GAPDH as an alternative for confirmation, using ABI Taqman pre-validated probe/primer sets. […] Neither TBP nor GAPDH mRNA levels are affected by TGF-beta and are therefore equally suitable, however TBP was selected as the primary normalisation standard because the absolute level of mRNA in most cell types is similar to that of the TGF-beta isoforms, resulting in lower errors on calculating the ratio, and improving the power of the experiment. In all quantitative PCR experiments, several additional controls were included: firstly, a control for each sample is run with no reverse transcription to ensure the mRNA sample is not contaminated with genomic DNA (although the manual design probe/primer sets were all selected to cross an exon/exon boundary, ensuring no detectable amplicon is produced from genomic DNA templates). […] This control ensures that the results for the unknown samples are obtained in the linear range of the amplification process, and are therefore truly quantitative. Failure of either control led to the repeat of the entire experiment. Typically, the half maximal signal was obtained after 20-30 amplification cycles. […]

TGF-beta1 = TGF-beta1 protein in the blood vessel wall, quantitative immunofluoresence; type: in vivo; conditions: apoE mice; for TGF-b1 staining: Aspirin 30 mg/kg/day, mean ± SD
Text: as §1, §2

In the case of `CC(=O)Oc1ccccc1C(=O)O` [Aspirin, acetylsalicylic acid], the “effect on fibrin(ogen) deposition into the blood vessel wall (in words)” value (fibrin(ogen); mouse, in vivo) is reported as “significantly reduced”, the “effect on total TGF-beta1 protein levels in conditioned medium” value (TGF-beta1 protein) is reported as “no statistically significant effect” and the “Level of mRNA, estimated by qPCR: tgfb1” value (tgfb1 mRNA; 10 μM A) is reported as 1.01 ± 0.04 fold-change. The “Level of mRNA, estimated by qPCR: tgfb1” value (tgfb1 mRNA; 33 μM A) was 0.93 ± 0.11 fold-change, the “Level of mRNA, estimated by qPCR: tgfb1” value (tgfb1 mRNA; 100 μM A) was 1.06 ± 0.08 fold-change and the “effect on the mRNA levels of any of the three isoforms of TGF-beta” value (tgfb1 mRNA; any concentration tested (up to 100 μM)) was “no statistically significant effect”. The TGF-b1 staining (TGF-beta1; 12 weeks, TMX 1 mg/kg/day) was 65 ± 11 AU, the “level of TGF-beta1 in the blood vessel wall (in words)” value (“level of TGF-beta1” for short) (TGF-beta1; Example 2) was “no effect” and the “level of TGF-beta1” value (TGF-beta1; Example 3) was “no effect”. It also gave a TGF-b1 staining (TGF-beta1; Fish oils 100 mg/kg/day) of 65 ± 11 AU.

`CC/C(=C(\c1ccccc1)c1ccc(OCCN(C)C)cc1)c1ccccc1` [Tamoxifen] was tested, and the “Fibrin(ogen) staining” value (fibrin(ogen); apoE mice, 12 weeks, TMX 1 mg/kg/day, Aspirin 30 mg/kg/day, mean ± SD) was 151 ± 7 AU, the “increase of fibrin(ogen) deposition into the vessel wall” value (fibrin(ogen); apoE mice, Tamoxifen 1 mg/kg/day, vs control) was 23% and the “effect on total TGF-beta1 protein levels in conditioned medium” value (TGF-beta1 protein) was “no statistically significant effect”. For the same molecule, the “Level of mRNA, estimated by qPCR: tgfb1” value (tgfb1 mRNA; 3.3 μM T, normalised to TBP, vs vehicle) was 0.95 ± 0.16 fold-change, the “Level of mRNA, estimated by qPCR: tgfb1” value (tgfb1 mRNA; 10 μM T) was 1.27 ± 0.09 fold-change and the “Level of mRNA, estimated by qPCR: tgfb1” value (tgfb1 mRNA; 33 μM T, listed as T) was 1.41 ± 0.08 fold-change. The “Level of mRNA, estimated by qPCR: tgfb1” value (tgfb1 mRNA; 33 μM T, listed as TMX) was “approximately 1.4 fold-change”, the “doses that significantly increased tgfb1 mRNA” value (tgfb1 mRNA) was at least 10 µM and the TGF-b1 staining (TGF-beta1; 12 weeks, TMX 1 mg/kg/day) was 94 ± 9 AU. The “level of TGF-beta1” value (TGF-beta1; Example 2) was “increased”.

Source: US20120100204A1, “TGF-Beta Stimulating Agent Compositions and Combinations” (TCP INNOVATIONS LTD, priority 2007, published 2012)
